Assay results reported in the supplement of paper PMC11451515.

Tests used:
Conditions in all cases: 48 h
[1] = tested on: P12-Ichikawa; assay: AUC of viability dose-response curve (% viability x log10 dose units); higher = less sensitive
Method in brief: (§1)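 Over 48 h at 37°C, leukemia cells in 1536-well plates (500 or 1000 cells/well), adapted to each medium, received library compounds in DMSO at 11 threefold doses from 47 μM to 0.79 nM. CellTiter-Glo One luminescence, normalised per plate to DMSO and cell-free wells, was fitted by a four-parameter log-logistic function of log10 dose. The area under the curve was then integrated by trapezoidal rule, after scaling curves above full viability and removing those that failed quality control.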

[2] = tested on: SEM cells; assay: as above
Method in brief: as §1

[3] = tested on: NOMO1; assay: as above
Method in brief: as §1

[4] = tested on: SEM cells; assay: cell viability relative to DMSO control; higher = less cytotoxic
Method in brief: (§2)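 Viability values are per-plate percentages of DMSO wells, with background from cell-free wells. Library compounds in DMSO were pin-dosed, in an 11-point threefold series from 47 μM to 0.79 nM, onto NOMO1 or SEM (500 cells/well) or P12-Ichikawa (1000 cells/well) leukemia cells in 1536-well plates (5 μl). Those cells had been adapted for at least four passages in each medium, and CellTiter-Glo One luminescence was read after 48 h at 37°C.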

[5] = tested on: P12-Ichikawa; assay: as above
Method in brief: as §2

[6] = tested on: NOMO1; assay: as above
Method in brief: as §2

C/C=C/C[C@@H](C)C(=O)[C@H]1C(=O)N[C@@H](C(C)C)C(=O)N(C)CC(=O)N(C)[C@@H](CC(C)C)C(=O)N[C@@H](C(C)C)C(=O)N(C)[C@@H](CC(C)C)C(=O)N[C@@H](C)C(=O)N[C@H](C)C(=O)N(C)[C@@H](CC(C)C)C(=O)N(C)[C@@H](CC(C)C)C(=O)N(C)[C@@H](C(C)C)C(=O)N1C
AUC of viability dose-response curve
Conditions | [1] | [2] | [3]
HPLM + 10% dialyzed FBS | 424 | 427 | 441
RPMI 5 mM glucose + 10% FBS | 413 | 406 | 466
RPMI 5 mM glucose + 10% dialyzed FBS | 411 | 424 | 461

[4], RPMI 5 mM glucose + 10% dialyzed FBS
Conditions | cell viability [%]
0.000781 µM | 125
0.00234 µM | 125
0.00702 µM | 108
0.0211 µM | 151
0.0632 µM | 131
0.19 µM | 120
0.569 µM | 123
1.71 µM | 108
5.12 µM | 108
15.4 µM | 71.6
46.1 µM | 23.7

CO[C@H]1/C=C/O[C@@]2(C)Oc3c(C)c(O)c4c(O)c(c5c(nc6cc(C)ccn65)c4c3C2=O)NC(=O)/C(C)=C\C=C\[C@H](C)[C@H](O)[C@@H](C)[C@@H](O)[C@@H](C)[C@H](OC(C)=O)[C@@H]1C
[2]
Conditions | AUC of viability dose-response curve
HPLM + 10% dialyzed FBS | 410
RPMI 5 mM glucose + 10% FBS | 394
RPMI 5 mM glucose + 10% dialyzed FBS | 375

cell viability [%]
Conditions | [4] | [5] | [6]
HPLM + 10% dialyzed FBS, 0.000781 µM | 100 | 108 | 104
HPLM + 10% dialyzed FBS, 0.00234 µM | 97.7 | 98.3 | 119
HPLM + 10% dialyzed FBS, 0.00702 µM | 100 | 107 | 112
HPLM + 10% dialyzed FBS, 0.0211 µM | 107 | 106 | 96.1
HPLM + 10% dialyzed FBS, 0.0632 µM | 92.5 | 107 | 116
HPLM + 10% dialyzed FBS, 0.19 µM | 112 | 106 | 110
HPLM + 10% dialyzed FBS, 0.569 µM | 113 | 104 | 96
HPLM + 10% dialyzed FBS, 1.71 µM | 104 | 102 | 93.8
HPLM + 10% dialyzed FBS, 5.12 µM | 47.2 | 50.2 | 35.5
HPLM + 10% dialyzed FBS, 15.4 µM | 70 | 89.4 | 91.7
HPLM + 10% dialyzed FBS, 46.1 µM | 1.92 | 9.34 | 11.1
RPMI 5 mM glucose + 10% FBS, 0.000781 µM | 106 | 103 | 107
RPMI 5 mM glucose + 10% FBS, 0.00234 µM | 120 | 103 | 99.1
RPMI 5 mM glucose + 10% FBS, 0.00702 µM | 109 | 113 | 97.7
RPMI 5 mM glucose + 10% FBS, 0.0211 µM | 125 | 102 | 110
RPMI 5 mM glucose + 10% FBS, 0.0632 µM | 94.9 | 114 | 82.7
RPMI 5 mM glucose + 10% FBS, 0.19 µM | 102 | 101 | 105
RPMI 5 mM glucose + 10% FBS, 0.569 µM | 115 | 94.1 | 87.6
RPMI 5 mM glucose + 10% FBS, 1.71 µM | 111 | 103 | 98.7
RPMI 5 mM glucose + 10% FBS, 5.12 µM | 40.5 | 46.5 | 43.8
RPMI 5 mM glucose + 10% FBS, 15.4 µM | 63.1 | 72.8 | 91.4
RPMI 5 mM glucose + 10% FBS, 46.1 µM | 4.47 | 35.1 | 44.9
RPMI 5 mM glucose + 10% dialyzed FBS, 0.000781 µM | 104 | 105 | 99.4
RPMI 5 mM glucose + 10% dialyzed FBS, 0.00234 µM | 109 | 100 | 97.8
RPMI 5 mM glucose + 10% dialyzed FBS, 0.00702 µM | 98.6 | 101 | 95.3
RPMI 5 mM glucose + 10% dialyzed FBS, 0.0211 µM | 109 | 99.9 | 108
RPMI 5 mM glucose + 10% dialyzed FBS, 0.0632 µM | 90.2 | 101 | 86.3
RPMI 5 mM glucose + 10% dialyzed FBS, 0.19 µM | 96.8 | 97.7 | 108
RPMI 5 mM glucose + 10% dialyzed FBS, 0.569 µM | 97.1 | 102 | 99.9
RPMI 5 mM glucose + 10% dialyzed FBS, 1.71 µM | 82.1 | 92.9 | 99.7
RPMI 5 mM glucose + 10% dialyzed FBS, 5.12 µM | 32 | 41.8 | 28.9
RPMI 5 mM glucose + 10% dialyzed FBS, 15.4 µM | 50.8 | 77.3 | 82.3
RPMI 5 mM glucose + 10% dialyzed FBS, 46.1 µM | 1.61 | 33.7 | 18.6
